Our source for the Kd values is patent publication US11072625B2 (GLYCOMIMETICS, INC., priority 2016, dated 2021).

SMILES strings stand for the structures.

This test addresses T1, recombinant human E-selectin/CD63E Fc Chimera (Homo sapiens, UniProt P16581).
T1 construct: purchased R & D systems
The test can be described thus: E-selectin activity, analysis by SPR (Biacore X100). The class given is binding. The note with it: Biacore X100, CM5 chip, E-selectin Fc chimera captured on anti-human IgG (Fc) antibody. Here is the method: Surface Plasmon Resonance (SPR) measurements were performed on a Biacore X100 instrument (GE Healthcare). A CM5 sensor chip (GE Healthcare) was used for the interaction between E-selectin and GMI compound. Anti-human IgG (Fc) antibody (GE Healthcare) was immobilized onto the chip by amine coupling according to the manufacturer's instructions. In brief, after a 7-min injection (flow rate of 5 μl/min) of 1:1 mixture of N-ethyl-N′-(3-dimethylaminopropyl) carbodiimide hydrochloride and N-hydroxysuccinimide, anti-human IgG (Fc) antibody (25 μg/ml in 10 mM sodium acetate buffer, pH 5.0) was injected using a 6-min injection at 5 μl min. Remaining activated groups were blocked by injecting 1 M ethanolamine/HCl, pH 8.5. The recombinant human E-selectin/CD63E Fc Chimera (50 μg/ml) (R & D systems) was injected into the experimental cell until 6000-7000 RU was captured onto the antibody surface. No recombinant human E-selectin/CD63E was injected into the control cell. Increasing concentrations of GMI compound samples were injected at 30 μl/min into both flow cells and all sensorgrams were recorded against the control. Regeneration of the anti-human IgG (Fc) surface was achieved by injecting 3M magnesium chloride, followed by 50 mM sodium hydroxide. Data were analyzed using Biacore X100 evaluation/BIA evaluation 4.1.1 software (GE Healthcare) and Graphad prism 6 software.
(In general: Surface plasmon resonance follows binding to a sensor surface in real time, without labels.)

T1 sequence (P16581 with tags, fused parts or gaps limits assumed): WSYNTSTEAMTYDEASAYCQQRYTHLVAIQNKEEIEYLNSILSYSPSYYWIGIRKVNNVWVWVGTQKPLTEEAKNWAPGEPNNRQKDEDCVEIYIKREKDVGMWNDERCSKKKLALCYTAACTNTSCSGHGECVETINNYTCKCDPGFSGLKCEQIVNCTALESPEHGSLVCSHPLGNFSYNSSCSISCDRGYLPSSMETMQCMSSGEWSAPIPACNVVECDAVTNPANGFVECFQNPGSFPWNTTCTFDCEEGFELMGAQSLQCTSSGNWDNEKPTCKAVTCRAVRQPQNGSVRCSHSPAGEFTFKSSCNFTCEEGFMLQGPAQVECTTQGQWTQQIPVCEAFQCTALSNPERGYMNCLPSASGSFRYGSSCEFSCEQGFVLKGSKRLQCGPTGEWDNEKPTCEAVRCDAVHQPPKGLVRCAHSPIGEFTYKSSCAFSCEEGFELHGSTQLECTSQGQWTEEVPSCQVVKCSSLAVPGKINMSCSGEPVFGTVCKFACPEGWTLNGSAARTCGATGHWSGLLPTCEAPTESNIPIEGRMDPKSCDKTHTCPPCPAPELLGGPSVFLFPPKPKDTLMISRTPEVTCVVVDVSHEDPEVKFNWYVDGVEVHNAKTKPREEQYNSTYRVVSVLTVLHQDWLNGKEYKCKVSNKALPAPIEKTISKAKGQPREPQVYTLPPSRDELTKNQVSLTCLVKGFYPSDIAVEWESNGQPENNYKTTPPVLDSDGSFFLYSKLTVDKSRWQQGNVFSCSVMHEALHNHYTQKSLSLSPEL

As for `CCC1CC(C(=O)OC)C[C@@H](O[C@@H]2O[C@@H](CO)[C@H](O)C(O[C@@H](CC3CCCCC3)C(=O)N3CCC3)C2NC(C)=O)[C@@H]1O[C@@H]1OC(C)[C@@H](O)[C@H](O)C1O` (some centres unmarked) [Compound 4], the equilibrium dissociation constant (Kd) (in general, the equilibrium constant for the complex coming apart) turned out to be 2600 nM.
To `CCC1CC(C(=O)NCCNC(=O)CCOCCOCCOCCOCCOCCOCCOCCOCCOCCOCCOCCOCCOCCOCCOCCOCCOCCOCCOCCOCCOCCC(=O)NCCNC(=O)C2CC(CC)C(OC3OC(C)C(O)C(O)C3O)C(OC3OC(CO)C(O)C(OC(CC4CCCCC4)C(=O)O)C3NC(C)=O)C2)CC(OC2OC(CO)C(O)C(OC(CC3CCCCC3)C(=O)O)C2NC(C)=O)C1OC1OC(C)C(O)C(O)C1O` (centres unmarked) [Compound 13] belongs 4.7 nM; to `CCC1CC(C(=O)NCCNC(=O)CCOCCOCCOCCOCCOCCOCCOCCOCCOCCOCCOCCOCCOCCC(=O)NCCNC(=O)C2CC(CC)C(OC3OC(C)C(O)C(O)C3O)C(OC3OC(CO)C(O)C(OC(CC4CCCCC4)C(=O)O)C3NC(C)=O)C2)CC(OC2OC(CO)C(O)C(OC(CC3CCCCC3)C(=O)O)C2NC(C)=O)C1OC1OC(C)C(O)C(O)C1O` (centres unmarked) [Compound 14], 6.6 nM; to `CCC1CC(C(=O)NCCNC(=O)CCOCCOCCOCCOCCOCCOCCOCCOCCOCCOCCC(=O)NCCNC(=O)C2CC(CC)C(OC3OC(C)C(O)C(O)C3O)C(OC3OC(CO)C(O)C(OC(CC4CCCCC4)C(=O)O)C3NC(C)=O)C2)CC(OC2OC(CO)C(O)C(OC(CC3CCCCC3)C(=O)O)C2NC(C)=O)C1OC1OC(C)C(O)C(O)C1O` (centres unmarked) [Compound 15], 6 nM.
To `CCC1CC(C(=O)NCCNC(=O)CCOCCOCCOCCOCCOCCOCCC(=O)NCCNC(=O)C2CC(CC)C(OC3OC(C)C(O)C(O)C3O)C(OC3OC(CO)C(O)C(OC(CC4CCCCC4)C(=O)O)C3NC(C)=O)C2)CC(OC2OC(CO)C(O)C(OC(CC3CCCCC3)C(=O)O)C2NC(C)=O)C1OC1OC(C)C(O)C(O)C1O` (centres unmarked) [Compound 16] belongs 6 nM.
To `CCC1CC(C(=O)NCCNC(=O)CCOCCOCCOCCOCCC(=O)NCCNC(=O)C2CC(CC)C(OC3OC(C)C(O)C(O)C3O)C(OC3OC(CO)C(O)C(OC(CC4CCCCC4)C(=O)O)C3NC(C)=O)C2)CC(OC2OC(CO)C(O)C(OC(CC3CCCCC3)C(=O)O)C2NC(C)=O)C1OC1OC(C)C(O)C(O)C1O` (centres unmarked) [Compound 17] belongs 5.1 nM; to `CCC1CC(C(=O)NCCNC(=O)CCOCCOCCC(=O)NCCNC(=O)C2CC(CC)C(OC3OC(C)C(O)C(O)C3O)C(OC3OC(CO)C(O)C(OC(CC4CCCCC4)C(=O)O)C3NC(C)=O)C2)CC(OC2OC(CO)C(O)C(OC(CC3CCCCC3)C(=O)O)C2NC(C)=O)C1OC1OC(C)C(O)C(O)C1O` (centres unmarked) [Compound 18], 3.5 nM.
Take `CC[C@H]1C[C@@H](C(=O)NCCNC(=O)CCC(=O)NCCNC(=O)C2C[C@H](CC)[C@@H](O[C@@H]3O[C@@H](C)[C@@H](O)[C@@H](O)[C@@H]3O)[C@H](O[C@@H]3O[C@H](CO)[C@H](O)[C@H](O[C@@H](CC4CCCCC4)C(=O)O)[C@H]3NC(C)=O)C2)C[C@@H](OC2O[C@H](CO)[C@H](O)[C@H](O[C@@H](CC3CCCCC3)C(=O)O)[C@H]2NC(C)=O)[C@@H]1O[C@@H]1O[C@@H](C)[C@@H](O)[C@@H](O)[C@@H]1O` (some centres unmarked) [Compound 19]: the Kd came out at 10.2 nM.
To `CCC1CC(C(=O)NCCNC(=O)CCOCCOCCOCCOCCOCCOCCOCCOCCOCCOCCC(=O)NCCNC(=O)C2CC(CC)C(OC3OC(C)C(O)C(O)C3O)C(OC3OC(CO)C(O)C(OC(CC4CCCCC4)C(=O)N4CCC4)C3NC(C)=O)C2)CC(OC2OC(CO)C(O)C(OC(CC3CCCCC3)C(=O)N3CCC3)C2NC(C)=O)C1OC1OC(C)C(O)C(O)C1O` (centres unmarked) [Compound 20] belongs 0.8 nM.
Regarding `CCC1CC(C(=O)NCCNC(=O)CCOCCOCCOCCOCCC(=O)NCCNC(=O)C2CC(CC)C(OC3OC(C)C(O)C(O)C3O)C(OC3OC(CO)C(O)C(OC(CC4CCCCC4)C(=O)N4CCC4)C3NC(C)=O)C2)CC(OC2OC(CO)C(O)C(OC(CC3CCCCC3)C(=O)N3CCC3)C2NC(C)=O)C1OC1OC(C)C(O)C(O)C1O` (centres unmarked) [Compound 23], the dissociation constant (Kd) is 2.8 nM.
To `CCC1CC(C(=O)NCCNC(=O)CCOCCOCCC(=O)NCCNC(=O)C2CC(CC)C(OC3OC(C)C(O)C(O)C3O)C(OC3OC(CO)C(O)C(OC(CC4CCCCC4)C(=O)N4CCC4)C3NC(C)=O)C2)CC(OC2OC(CO)C(O)C(OC(CC3CCCCC3)C(=O)N3CCC3)C2NC(C)=O)C1OC1OC(C)C(O)C(O)C1O` (centres unmarked) [Compound 25] belongs 3 nM.
To `CC[C@H]1C[C@@H](C(=O)NCCNC(=O)c2cn(CCOCCOCCOCCn3cc(C(=O)NCCNC(=O)[C@@H]4C[C@H](CC)[C@@H](O[C@@H]5O[C@@H](C)[C@@H](O)[C@@H](O)[C@@H]5O)[C@H](O[C@@H]5O[C@H](CO)[C@H](O)[C@H](O[C@@H](CC6CCCCC6)C(=O)O)[C@H]5NC(C)=O)C4)nn3)nn2)C[C@@H](OC2O[C@H](CO)[C@H](O)[C@H](O[C@@H](CC3CCCCC3)C(=O)O)[C@H]2NC(C)=O)[C@@H]1OC1O[C@@H](C)[C@@H](O)[C@@H](O)[C@@H]1O` (some centres unmarked) [Compound 27] belongs 8.6 nM.
To `CCC1CC(C(=O)NCCNC(=O)c2cn(CCOCCOCCn3cc(C(=O)NCCNC(=O)C4CC(CC)C(OC5OC(C)C(O)C(O)C5O)C(OC5OC(CO)C(O)C(OC(CC6CCCCC6)C(=O)O)C5NC(C)=O)C4)nn3)nn2)CC(OC2OC(CO)C(O)C(OC(CC3CCCCC3)C(=O)O)C2NC(C)=O)C1OC1OC(C)C(O)C(O)C1O` (centres unmarked) [Compound 28] belongs 3.2 nM.
On to `CC[C@H]1C[C@@H](C(=O)NCCNC(=O)c2cn(CC(=O)NCCNC(=O)[C@@H]3C[C@H](CC)[C@@H](O[C@@H]4O[C@@H](C)[C@@H](O)[C@@H](O)[C@@H]4O)[C@H](O[C@@H]4O[C@H](CO)[C@H](O)[C@H](O[C@@H](CC5CCCCC5)C(=O)O)[C@H]4NC(C)=O)C3)nn2)C[C@@H](OC2O[C@H](CO)[C@H](O)[C@H](O[C@@H](CC3CCCCC3)C(=O)O)[C@H]2NC(C)=O)[C@@H]1OC1O[C@@H](C)[C@@H](O)[C@@H](O)[C@@H]1O` (some centres unmarked) [Compound 31], for which the dissociation constant (Kd) was found to be 3.3 nM.
The same measure for `CC[C@H]1C[C@@H](C(=O)NCCNC(=O)NCCNC(=O)[C@@H]2C[C@H](CC)[C@@H](O[C@@H]3O[C@@H](C)[C@@H](O)[C@@H](O)[C@@H]3O)[C@H](O[C@@H]3O[C@H](CO)[C@H](O)[C@H](O[C@@H](CC4CCCCC4)C(=O)O)[C@H]3NC(C)=O)C2)C[C@@H](OC2O[C@H](CO)[C@H](O)[C@H](O[C@@H](CC3CCCCC3)C(=O)O)[C@H]2NC(C)=O)[C@@H]1OC1O[C@@H](C)[C@@H](O)[C@@H](O)[C@@H]1O` (some centres unmarked) [Compound 32]: 8.8 nM; for `CCC1CC(C(=O)NCCNC(=O)c2cn(CCOCCC(=O)NCCCCC(NC(=O)CCOCCn3cc(C(=O)NCCNC(=O)C4CC(CC)C(OC5OC(C)C(O)C(O)C5O)C(OC5OC(CO)C(O)C(OC(CC6CCCCC6)C(=O)O)C5NC(C)=O)C4)nn3)C(=O)OCc3ccccc3)nn2)CC(OC2OC(CO)C(O)C(OC(CC3CCCCC3)C(=O)O)C2NC(C)=O)C1OC1OC(C)C(O)C(O)C1O` (centres unmarked) [Compound 37]: 3.9 nM.
As for `CC[C@H]1C[C@@H](C(=O)NCCNC(=O)NCCNC(=O)[C@@H]2C[C@H](CC)[C@@H](O[C@@H]3O[C@@H](C)[C@@H](O)[C@@H](O)[C@@H]3O)[C@H](O[C@@H]3O[C@H](CO)[C@H](O)[C@H](O[C@@H](CC4CCCCC4)C(=O)N4CCC4)[C@H]3NC(C)=O)C2)C[C@@H](OC2O[C@H](CO)[C@H](O)[C@H](O[C@@H](CC3CCCCC3)C(=O)N3CCC3)[C@H]2NC(C)=O)[C@@H]1OC1O[C@@H](C)[C@@H](O)[C@@H](O)[C@@H]1O` (some centres unmarked) [Compound 45], the dissociation constant Kd was found to be 2.1 nM.
